Results as given in patent US20210206817A1, “Metabolically Stable Apelin Analogs in the Treatment of Disease Mediated by the Apelin Receptor” (priority 2014, published 2021).
Values joined by “and” are separate entries in the source; they are usually repeats but may differ in a detail not shown here. Identical values can stand only once. Like-named read-outs stand apart in the source and are kept apart here. Where a SMILES comes first, the peptide text is derived from it.

How the values were obtained:
[1] = Half-life in the blood circulation
[2] = target: T1, rat apelin receptor-EGFP (Rattus norvegicus, UniProt Q9JHG3); experiment: ERK1/2 phosphorylation (Alphascreen); assay type: cell-based; settings: Table 7; read-out: ERK1/2 phosphorylation EC50
T1 construct: expressed in transfected cells
T1 sequence (Q9JHG3 1-377): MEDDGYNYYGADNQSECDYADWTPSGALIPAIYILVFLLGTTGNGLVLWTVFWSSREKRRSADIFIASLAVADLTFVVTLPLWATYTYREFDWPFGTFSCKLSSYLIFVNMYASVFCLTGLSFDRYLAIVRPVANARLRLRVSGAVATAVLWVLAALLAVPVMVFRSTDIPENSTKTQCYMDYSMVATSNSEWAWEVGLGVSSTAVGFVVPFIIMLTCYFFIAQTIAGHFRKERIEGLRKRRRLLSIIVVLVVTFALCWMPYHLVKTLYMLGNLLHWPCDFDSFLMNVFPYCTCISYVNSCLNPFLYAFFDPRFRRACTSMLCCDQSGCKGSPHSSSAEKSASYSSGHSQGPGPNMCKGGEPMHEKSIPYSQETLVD
Text: ERK1/2 phosphorylation was then monitored by Alphascreen technology.

[3] = system: water-deprived or euhydrated mice; experiment: Plasma AVP after i.c.v. injection (RIA); assay type: in vivo, mouse; settings: for maximal decrease in AVP release: water-deprived mice
Protocol: Animals were killed 1 min after the injection, and trunk blood (0.5-1 ml) was collected in chilled tubes containing 50 μl of 0.3 M EDTA pH 7.4. […] RIA kit (Peninsula Laboratories International Inc, San Carlo, USA).

[4] = system: water-deprived or euhydrated mice; settings: i.c.v., Iturrioz 2010; cited from earlier work
[5] = Stability in mouse plasma at 37° C.; settings: mouse, plasma
Protocol: For each compound, the stock solution (100 μM in water) was diluted in plasma to a final incubation concentration of 5 μM. The incubation at 37° C. was stopped respectively at to and 4 h by adding one volume of ice cold acetonitrile containing 0.1% trifluoroacetic acid. The sample was vortexed for 1 min and then centrifuged at 4° C. before LC-MS injection of the supernatant. Analyses were performed on a Kinetex RP-C18 column (2.6 μm, 100 Å, 50×4.6 mm) using a linear gradient (solvent B in solvent A, solvent A: water/0.05% TFA; solvent B: acetonitrile; flow rate of 2 mL·min^−1: detection at 358 nm). The percentage of remaining test compound relative to t0 was measured by monitoring the peak area of the chromatogram.

[6] = system: isolated perfused rat heart; experiment: Isolated perfused rat heart, cardiac contractility; settings: for effect on cardiac contractility (developed pressure): K17F 0.01 to 300 nM, P92 200 and 400 nM
Protocol: Animals were anesthetized with pentobarbital sodium (50 mg/kg intraperitoneally). Heparin (200 IU/kg) was administrated into the femoral vein. Hearts were excised quickly and arrested in ice-cold Krebs-Henseleit solution containing (mM): […] […] Temperature was continuously monitored by a thermoprobe inserted into the right atrium. Hearts beat spontaneously under the sinus rhythm. […] The maximal rate of rise of left ventricular pressure (dP/dtmax) and heart rate were derived from left ventricular pressure. After 20-minutes equilibration period, the hearts were treated by drugs added to the perfusate with an infusion pump (Harvard Apparatus Pump 11) at rate of 100 μL/min for 30 minutes.

[7] = system: anaesthesized normotensive Wistar rats; experiment: Arterial blood pressure after i.v. injection; assay type: in vivo, rat; settings: for AUC of BP response: 100 nmol i.v., 15 minutes following injection; for Maximal decrease in BP (mmHg) / Time For maximal BP decrease / Time to return to a plateau value / plateau value reached (in brackets): Table 5; for ED50 decrease of MABP: i.v. 5-100 nmol/rat
Protocol: The resulting solution was administered to the rats via a catheter inserted into the right femoral vein, and was immediately followed by 0.2 ml Krebs buffer alone to flush the venous catheter. An additional catheter was inserted into the right femoral artery, as previously described (47), for the monitoring of mean arterial blood pressure (MBP) as previously described (48). The arterial catheter was connected to a COBE CDX III pressure transducer (Phymep, Paris, France) linked to the Maclab system (Phymep, Paris, France). HR measurement was triggered by the blood pressure signal. BP was continuously recorded throughout the experiment. […] Mean AUC for each group were then calculated. Unpaired Student's t test was used to determine whether BP observed in response to substances administered […].) has statistically significant difference.

[8] = target: T1, rat apelin receptor-EGFP; experiment: Inhibition of forskolin-induced cAMP production (HTRF); assay type: cell-based
Protocol: cAMP was quantified using the cAMP dynamic 2 assay kit (Cisbio Bioassays, Codolet, France) based on homogeneous time-resolved fluorescence (HTRF) technology. The stimulation was done in the stimulation buffer (HBSS, 5 mM Hepes, 0.1% BSA stabilizer, 1 mM IBMX, pH 7.4). Briefly, 2,000/well CHO cells stably expressing the rat apelin receptor-EGFP were added into 384-well plate and stimulated with 10^−6 M forskolin (FSK) and increasing concentrations (10^−14 to 10^−4 M) of apelins or its analogs for 30 min at room temperature. Cells were then lyzed, and cAMP levels were determined following manufacturer instructions.

[9] = target: T1, rat apelin receptor-EGFP; experiment: [125I]pE13F radioligand binding on CHO membrane preparations
Protocol: Crude membrane preparation from CHO stably expressing the wild-type rat apelin receptor-EGFP, were prepared as previously described (39). […] The reaction was stopped by adding ice-cold binding buffer and filtered through glass microfiber filters (Whatman GF/C filters). Radioactivity was counted in Wizard 1470 Wallac gamma counter (Perkin Elmer, Turku, Finland).

[10] = system: rat aortic rings precontracted by noradrenaline (NA); experiment: Isometric tension of aortic rings precontracted by noradrenaline; settings: for maximal relaxant effect / potency (pD2) of relaxation: precontraction 3×10^−6 M NA
Protocol: The experiments were performed in rat aortic rings as previously described (39). […] The aortas were cleaned of excess connective tissue and fat and cut into rings of approximately 3-4 mm in length. Special care was taken to avoid damaging the luminal surface of the endothelium. […] One end of the aortic ring was connected to a tissue holder and the other to an isometric force transducer (EMKA Technologies, Paris, France). […] During equilibration period, the rings were washed every 30 min. Then, a first relaxation to acetylcholine (Ach, 10^−4 mol/L) was implemented to check the integrity or the absence of the endothelium in rings precontracted with NA (3×10^−8 mol/L). After rinsing with PSS to baseline tension, rings were equilibrated for 90 min. […] Each concentration of the drug was added at the maximal effect of the precedent concentration. The concentration-response curves were continuously recorded on a PC by means of IOX v 2.4 (EMKA Technologies, Paris) for further analysis (Datanalyst v2.1, EMKA Technologies, Paris).

[11] = target: T1, rat apelin receptor-EGFP; experiment: Apelin receptor-EGFP internalization, confocal microscopy; assay type: cell-based; settings: for EC50: Table 2, read-out: Internalization EC50
Protocol: The internalization assay was performed as described previously with CHO cells stably expressing the rat apelin receptor-EGFP (43). […] Cells were then mounted in Aquapolymount (Polysciences, Warrington, Pa., USA) for confocal microscopic analysis (Sec (42) for details).

[12] = system: rat glomerular arterioles precontracted by Angiotensin II (AngII); experiment: Diameter of glomerular arterioles precontracted by angiotensin II; settings: for vasorelaxant effect in the presence of L-NAME: NO synthase inhibitor
Protocol: The left kidney of male rats was prepared for microdissection of arterioles as previously described (44). Glomerular arterioles were isolated under stereomicroscopic observation. The afferent and muscular efferent arterioles were isolated with the glomerulus and identify according their morphology and localization in the inner renal cortex as previously described by Helou et al. […] For these experiments afferent and muscular efferent arterioles were microdissected attached to the gomeruli. […] Arteriolar diameters were measured with Adobe Photoshop CS. Diameters were measured on a distance equal to about 100 μm upstream of the glomerulus and triplicate were performed for each arteriole. Calibration was made using a stage micrometer. The average diameter for each experimental condition was used for statistical analysis.

[13] = system: AT1 receptor; experiment: Selectivity towards the AT1 receptor; assay type: binding
[14] = 10^−6 M forskolin, read-out: IC50 inhibition of forskolin-induced cAMP production
[15] = Table 1, read-out: cAMP production IC50
[16] = competition with [125I]pE13F, CHO membranes, read-out: Ki for the apelin receptor (affinity)

Compound | EC50 [2] [nM] | half-life at 5 μM [5] [min] | chronotropic effect [6] | effect on cardiac contractility (developed pressure) [6] | AUC of BP response [7] [mmHg·s] | decrease in MABP ([7]; 100 nmol/rat i.v.) [mmHg] | plateau value after maximal decrease ([7]; 100 nmol/rat i.v.) [mmHg] | time of return to plateau value ([7]; 100 nmol/rat i.v.) | Maximal decrease in BP (mmHg) ([7]; 15 nmol i.v.) | Time For maximal BP decrease ([7]; 15 nmol i.v.) [min] | Time to return to a plateau value ([7]; 15 nmol i.v.) [min] | plateau value reached (in brackets) ([7]; 15 nmol i.v.) | ED50 decrease of MABP [7] [nmol] | IC50 [8, 14] [nM] | IC50 [8, 15] [nM] | Ki [9, 16] | maximal relaxant effect [10] [%] | potency (pD2) of relaxation [10] | EC50 [11] [nM] | vasorelaxant effect in the presence of L-NAME [12] | other results
CSCC[C@H](NC(=O)[C@@H]1CCCN1C(=O)CNC(=O)[C@H](CCCCN)NC(=O)[C@H](Cc1c[nH]cn1)NC(=O)[C@H](CO)NC(=O)[C@H](CC(C)C)NC(=O)[C@H](CCCNC(=N)N)NC(=O)[C@@H]1CCCN1C(=O)[C@H](CCCNC(=N)N)NC(=O)[C@H](CCC(N)=O)NC(=O)[C@H](CCCNC(=N)N)NC(=O)[C@H](CCCNC(=N)N)NC(=O)[C@H](Cc1ccccc1)NC(=O)[C@@H](N)CCCCN)C(=O)N1CCC[C@H]1C(=O)N[C@@H](Cc1ccccc1)C(=O)O [K17F, reference compound] | 4.08 ± 1.17 | 4.6 | No chronotropic effect | dose-dependently increased developed pressure | −13712±5271 | 30.5 | −12 | around 22 min | −7.8 | 1.2 | 4.2 | baseline | 30 | 0.3 ± 0.2 | 0.3 ± 0.1 | 0.3 ± 0.1 nM | 87±8 | 8.30±0.44 | 0.26 ± 0.09 | blocked | half-life [1]: 0.667 min; plasma AVP levels ([3]; water-deprived mice 24 h, 1 μg i.c.v., saline 425±46 pg/ml): 190 ± 27 pg/mL; maximal decrease in AVP release ([3]; 1 μg i.c.v.): −94%; ED50 decrease in plasma AVP [4]: 56 pmol; (maximal) decrease in mean arterial blood pressure ([7]; 15 nmol/rat i.v.): 7.8 mmHg and 5.4±1 mmHg; time of maximal hypotensive response after injection ([7]; 15 nmol/rat i.v.): 1.2 min; IC50 ([8]; Table 3, read-out: IC50 cAMP inhibition): 0.09 ± 0.01 nM; Ki ([9]; Table 7, additional experiments vs Table 2, read-out: Binding affinity Ki): 0.06 ± 0.01 nM; Ki ([9]; [125I]pE13F binding I (nM), Table 2): 0.26 ± 0.12 nM; vasorelaxing effect at maximal concentration ([10]; 100 μM): 93±3%
CCCC[C@H](NC(=O)[C@@H]1CCCN1C(=O)[C@@H](C)NC(=O)[C@H](CCCCN)NC(=O)C(C)(C)NC(=O)[C@H](CO)NC(=O)[C@@H](CC(C)C)NC(=O)[C@H](CCCNC(=N)N)NC(=O)[C@@H]1CCCN1C(=O)[C@H](CCCNC(=N)N)NC(=O)[C@@H](CCC(N)=O)NC(=O)[C@H](CCCNC(=N)N)NC(=O)[C@@H](CCCNC(=N)N)NC(=O)[C@H](Cc1ccccc1)NC(=O)[C@H](CCCCN)NC(C)=O)C(=O)N1CCC[C@H]1C(=O)N[C@@H](Cc1ccc(Br)cc1)C(=O)O [P92, N-Acetyl-Lys-Phe-DArg-Arg-DGln-Arg-Pro-Arg-DLeu-Ser-Aib-Lys-DAla-Pro-Nle-Pro-(4Br)Phe-OH] (HELM PEPTIDE1{[ac].K.F.[dR].R.[dQ].R.P.R.[dL].S.[Aib].K.[dA].P.[Nle].P.[O=C(O)[C@H](Cc1ccc(Br)cc1)N[*:1]]}$$$$V2.0) | 3.42 ± 2.41 | 24 | No chronotropic effect | increase cardiac contractility with an amplitude similar to K17F | −34303±4003 | 55.4 | −20 | around 35 min | −20.8 | 1.6 | 10.8 | −12 mmHg | 29.5 | 0.2 ± 0.06 | 0.62 ± 0.77 | 0.21 nM and 0.2 nM and 0.09 nM | 100±1 | 7.68±0.57 | 0.38 ± 0.11 | blocked | effect on plasma AVP levels in euhydrated mice ([3]; euhydrated mice, supramaximal dose 1 μg i.c.v.): no effect on plasma AVP levels; maximal decrease in AVP release ([3]; 0.1 μg i.c.v.): −85%; selectivity towards the AT1 receptor with respect to the apelin receptor (factor) [13]: 100; duration of the hypotensive effect, fold higher than K17F ([7]; 15 nmol i.v.): 3 fold; maximal hypotensive response, fold higher than K17F ([7]; 15 nmol i.v.): 3 fold; return to baseline after injection ([7]; 15 nmol/rat i.v.): 10.8 min; plateau value after maximal decrease ([7]; 10 or 15 nmol i.v.): −25 mmHg; time of return to plateau value ([7]; 10 or 15 nmol i.v.): around 33 min; agonist behaviour on inhibition of cAMP production induced by forskolin [8]: full agonist; IC50 ([8]; Table 2, read-out: cAMP production IC50): 0.56 ± 0.32 nM; IC50 ([9]; Table 1): 0.21 ± 0.13 nM; agonist behaviour towards apelin receptor internalization [11]: full agonist; arteriolar diameter after addition to Ang II-preconstricted arterioles ([12]; 500 nM, 1 nM Ang II, from 87.6±1.9% with Ang II, percentage of controls): 98.1±2.5%
